# In ChEMBL document CHEMBL1201862, “PubChem BioAssay data set” (2004):
# The source made the active and inactive calls.
# How the values were obtained:
# Streptokinase A = target: T1, Streptokinase A (Streptococcus pyogenes serotype M1, UniProt P10520); experiment: S. pyogenes streptokinase expression inhibitors, potency, dose response, plasminogen activation absorbance, OD405 (AID 1914); type: functional, Streptococcus pyogenes M1 GAS;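 also: secreted streptokinase activity via plasminogen activation per viability signal from cell pellet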
# T1 sequence (P10520 whole entry): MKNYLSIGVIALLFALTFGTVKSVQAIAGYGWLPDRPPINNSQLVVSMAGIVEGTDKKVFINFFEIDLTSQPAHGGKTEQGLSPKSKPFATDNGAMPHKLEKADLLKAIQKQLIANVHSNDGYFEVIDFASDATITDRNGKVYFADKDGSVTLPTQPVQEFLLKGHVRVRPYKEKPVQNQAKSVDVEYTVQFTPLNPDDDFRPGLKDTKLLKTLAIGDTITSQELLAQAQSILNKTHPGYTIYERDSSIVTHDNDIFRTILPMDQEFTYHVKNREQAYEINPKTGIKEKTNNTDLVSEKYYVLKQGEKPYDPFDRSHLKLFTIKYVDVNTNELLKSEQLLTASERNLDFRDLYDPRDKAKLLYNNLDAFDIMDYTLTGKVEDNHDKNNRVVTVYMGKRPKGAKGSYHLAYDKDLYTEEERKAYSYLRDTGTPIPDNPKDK
# [1] = test system: Streptococcus sp. 'group A'; experiment: growth inhibition of control SK(-) GAS strain, dose response, counter-screen for streptokinase expression inhibitor project, luminescence, kanamycin, BacTiterGlo, confirmation (AID 1900); type: functional, organism-based
# Streptococcus = experiment: Group A Streptococcus viability loss, dose response, counter-screen for streptokinase expression inhibitor project, luminescence, BacTiterGlo (AID 1915); type: functional, organism-based;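 also: potency for reduction of bacterial viability or growth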
# [2] = target: Luciferin 4-monooxygenase (Photinus pyralis, UniProt P08659); experiment: firefly luciferase enzyme inhibitors, dose response, biochemical, luminescence (AID 1891)
# [3] = Luminescence Cell-Based Dose Confirmation HTS to Identify Inhibitors of Platelet Dense Granule Release. [Related pubchem assays: 1663 (Primary HTS), 1678 (Summary of Project)]; type: functional
# [4] = cytotoxicity toward NIH3T3 fibroblasts, dose response, counter-screen, cell-based, ATP luminescence, mouse fibroblasts (AID 2010); type: functional;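 also: cells exposed to compound for about 90 hours before reading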
# [5] = inhibitors of intracellular T. cruzi replication, confirmation, NIH3T3 host cells, beta-gal luminescence (AID 2044); type: functional, cell-based;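 also: intracellular parasites grown in NIH/3T3 mouse fibroblasts as host cells; luminescent beta-galactosidase reporter signal from transgenic T. cruzi replicating inside host cells; inhibitors lower the luminescence signal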
# INS1 = experiment: beta cell apoptosis inhibitors, cytokine rescue, dose response, luminescence, retest (AID 449756); type: functional, cell-based; conditions: Rattus norvegicus;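 also: cell death triggered by IL-1 beta plus TNF-alpha plus IFN-gamma mixture; protective hits raise ATP signal compared with cytokine alone wells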
# [6] = target: T2, High affinity choline transporter 1 (Homo sapiens, UniProt Q9GZV3); experiment: CHT inhibitors, dose response, cell-based, 5-point CRC, membrane potential dye (AID 504840); type: functional
# T2 sequence (Q9GZV3 whole entry): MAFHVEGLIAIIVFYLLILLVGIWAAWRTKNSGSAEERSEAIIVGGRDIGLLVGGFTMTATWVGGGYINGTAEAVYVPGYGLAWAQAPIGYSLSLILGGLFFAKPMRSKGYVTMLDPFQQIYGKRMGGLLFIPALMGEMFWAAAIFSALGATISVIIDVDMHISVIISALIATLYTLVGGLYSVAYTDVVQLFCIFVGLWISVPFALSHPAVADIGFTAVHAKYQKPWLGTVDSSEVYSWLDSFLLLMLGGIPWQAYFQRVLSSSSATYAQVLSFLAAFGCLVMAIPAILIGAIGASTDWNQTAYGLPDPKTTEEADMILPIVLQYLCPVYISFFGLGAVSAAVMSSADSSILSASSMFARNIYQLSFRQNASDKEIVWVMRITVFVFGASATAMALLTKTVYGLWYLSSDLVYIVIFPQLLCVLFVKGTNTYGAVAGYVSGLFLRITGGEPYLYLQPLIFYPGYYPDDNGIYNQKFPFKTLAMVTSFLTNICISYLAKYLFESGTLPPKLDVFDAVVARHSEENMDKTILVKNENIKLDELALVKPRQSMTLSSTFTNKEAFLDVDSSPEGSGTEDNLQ
# [7] = growth suppression of PTEN-null colon cells, dose response, cell-based, HCT116 PTEN knockout (AID 1047); type: functional;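 also: HCT116 colon tumor cells with PTEN knocked out; cells exposed to compound for 60 hours before readout; potency for loss of cell viability measured by luminescence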
# [8] = growth suppression of beta-catenin-knockout colon cells, dose response, cell-based, HCT116, human colon tumor (AID 1045); type: functional;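 also: HCT116 colon tumor cells with beta catenin knocked out; cells exposed to compound for 60 hours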
# [9] = Luminescence Cell-Based Dose Retest to Confirm Inhibitors of Cancer Stem Cells. [Related pubchem assays (depositor defined):AID2717, AID2721]; type: functional; conditions: Homo sapiens
# Cytochrome P450 2D6 = Cytochrome P450 2D6 (Homo sapiens, UniProt P10635);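 also: CYP2D6 member of a cytochrome P450 panel assay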
# Cytochrome P450 1A2 = target: T3, Cytochrome P450 1A2 (Homo sapiens, UniProt P05177);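 also: PubChem cytochrome P450 panel assay, CYP1A2 panel member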
# T3 sequence (P05177 whole entry): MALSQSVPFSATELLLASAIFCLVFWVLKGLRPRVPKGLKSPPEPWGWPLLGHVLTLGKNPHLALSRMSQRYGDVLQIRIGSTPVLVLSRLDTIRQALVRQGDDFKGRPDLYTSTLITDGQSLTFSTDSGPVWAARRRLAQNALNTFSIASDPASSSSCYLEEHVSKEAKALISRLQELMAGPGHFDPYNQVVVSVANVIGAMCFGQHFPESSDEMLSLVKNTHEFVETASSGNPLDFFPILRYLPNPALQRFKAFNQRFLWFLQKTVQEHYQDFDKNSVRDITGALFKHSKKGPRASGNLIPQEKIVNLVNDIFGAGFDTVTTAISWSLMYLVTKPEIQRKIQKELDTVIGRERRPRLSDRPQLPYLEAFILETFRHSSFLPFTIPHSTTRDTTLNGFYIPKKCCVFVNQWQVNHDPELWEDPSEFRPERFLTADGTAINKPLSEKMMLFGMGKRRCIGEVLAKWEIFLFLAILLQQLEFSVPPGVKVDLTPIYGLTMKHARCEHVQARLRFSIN
# Cytochrome P450 3A4 = Cytochrome P450 3A4 (Homo sapiens, UniProt P08684);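 also: CYP3A4 tested as one member of a cytochrome P450 panel screen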
# Cytochrome P450 2C19 = Cytochrome P450 2C19 (Homo sapiens, UniProt P33261); experiment: Cytochrome panel assay with activity outcomes. Panel member name: p450-cyp2c19 Compounds with AC50 equal or less than 10 uM are considered active; type: functional; conditions: read-out: AC50
# [10] = target: T4, Heat shock factor protein 1 (Mus musculus, UniProt P38532); experiment: HSF1 potentiators in luciferase reporter cells, confirmation, cell-based, NIH3T3, luminescence, dose retest (AID 435004); type: functional;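 also: stress induced by proteasome inhibitor MG132 added 30 min after compound; luciferase reporter driven by HSF1 response element in NIH3T3 cells; actives raise luminescence as potentiators of the MG132 stress response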
# T4 sequence (P38532 whole entry): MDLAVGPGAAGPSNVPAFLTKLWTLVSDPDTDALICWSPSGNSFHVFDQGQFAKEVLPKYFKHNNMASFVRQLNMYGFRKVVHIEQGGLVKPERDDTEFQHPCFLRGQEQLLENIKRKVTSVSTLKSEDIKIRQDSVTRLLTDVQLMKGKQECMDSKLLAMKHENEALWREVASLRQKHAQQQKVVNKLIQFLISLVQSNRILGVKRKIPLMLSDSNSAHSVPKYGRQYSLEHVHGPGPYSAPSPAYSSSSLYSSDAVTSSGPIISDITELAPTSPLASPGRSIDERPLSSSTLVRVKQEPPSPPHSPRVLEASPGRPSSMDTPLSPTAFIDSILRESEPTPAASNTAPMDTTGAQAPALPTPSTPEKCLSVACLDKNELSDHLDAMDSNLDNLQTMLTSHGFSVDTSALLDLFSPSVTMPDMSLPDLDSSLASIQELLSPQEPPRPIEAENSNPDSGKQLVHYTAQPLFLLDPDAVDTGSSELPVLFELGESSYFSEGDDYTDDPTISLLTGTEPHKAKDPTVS
# Luciferin 4-monooxygenase, sequence (P08659 whole entry): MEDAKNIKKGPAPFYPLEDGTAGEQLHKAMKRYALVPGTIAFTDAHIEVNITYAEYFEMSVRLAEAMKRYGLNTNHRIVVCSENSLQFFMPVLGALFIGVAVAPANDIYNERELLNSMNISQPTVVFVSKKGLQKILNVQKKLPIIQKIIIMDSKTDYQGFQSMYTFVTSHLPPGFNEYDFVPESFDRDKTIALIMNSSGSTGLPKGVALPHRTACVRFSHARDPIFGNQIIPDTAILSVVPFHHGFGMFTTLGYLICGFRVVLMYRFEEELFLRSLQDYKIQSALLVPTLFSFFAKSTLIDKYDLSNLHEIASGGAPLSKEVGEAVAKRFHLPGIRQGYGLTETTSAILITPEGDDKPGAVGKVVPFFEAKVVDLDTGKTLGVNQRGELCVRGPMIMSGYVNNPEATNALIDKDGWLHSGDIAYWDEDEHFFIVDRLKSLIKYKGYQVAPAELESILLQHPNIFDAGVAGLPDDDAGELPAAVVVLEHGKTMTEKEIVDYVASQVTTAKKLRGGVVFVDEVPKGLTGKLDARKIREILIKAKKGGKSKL
# Cytochrome P450 2D6, sequence (P10635 whole entry): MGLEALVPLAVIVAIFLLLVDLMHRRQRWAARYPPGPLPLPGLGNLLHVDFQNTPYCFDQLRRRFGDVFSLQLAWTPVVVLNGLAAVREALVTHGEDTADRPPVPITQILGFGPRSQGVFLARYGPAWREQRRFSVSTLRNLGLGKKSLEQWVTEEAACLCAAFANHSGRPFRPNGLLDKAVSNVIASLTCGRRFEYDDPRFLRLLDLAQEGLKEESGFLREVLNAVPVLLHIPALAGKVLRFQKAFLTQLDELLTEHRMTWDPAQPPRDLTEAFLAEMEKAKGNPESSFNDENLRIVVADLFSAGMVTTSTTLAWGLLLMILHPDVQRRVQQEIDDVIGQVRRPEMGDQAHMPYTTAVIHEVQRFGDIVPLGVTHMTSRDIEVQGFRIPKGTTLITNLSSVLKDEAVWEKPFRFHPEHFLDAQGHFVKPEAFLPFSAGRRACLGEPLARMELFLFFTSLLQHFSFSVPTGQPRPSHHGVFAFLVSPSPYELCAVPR
# Cytochrome P450 2C19, sequence (P33261 whole entry): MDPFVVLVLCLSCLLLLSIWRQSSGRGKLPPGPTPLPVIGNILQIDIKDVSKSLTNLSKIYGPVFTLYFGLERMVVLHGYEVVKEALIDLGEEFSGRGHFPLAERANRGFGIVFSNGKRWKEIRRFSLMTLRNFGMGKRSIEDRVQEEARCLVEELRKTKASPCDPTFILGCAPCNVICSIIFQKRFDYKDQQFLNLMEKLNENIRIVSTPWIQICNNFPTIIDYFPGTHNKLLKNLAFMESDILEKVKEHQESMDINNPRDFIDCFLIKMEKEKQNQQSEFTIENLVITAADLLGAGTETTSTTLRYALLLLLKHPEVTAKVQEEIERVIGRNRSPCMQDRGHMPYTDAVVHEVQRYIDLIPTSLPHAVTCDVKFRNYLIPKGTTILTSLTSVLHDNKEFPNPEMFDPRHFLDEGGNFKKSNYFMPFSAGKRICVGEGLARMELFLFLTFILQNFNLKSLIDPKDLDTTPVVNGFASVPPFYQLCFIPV
# Cytochrome P450 3A4, sequence (P08684 whole entry): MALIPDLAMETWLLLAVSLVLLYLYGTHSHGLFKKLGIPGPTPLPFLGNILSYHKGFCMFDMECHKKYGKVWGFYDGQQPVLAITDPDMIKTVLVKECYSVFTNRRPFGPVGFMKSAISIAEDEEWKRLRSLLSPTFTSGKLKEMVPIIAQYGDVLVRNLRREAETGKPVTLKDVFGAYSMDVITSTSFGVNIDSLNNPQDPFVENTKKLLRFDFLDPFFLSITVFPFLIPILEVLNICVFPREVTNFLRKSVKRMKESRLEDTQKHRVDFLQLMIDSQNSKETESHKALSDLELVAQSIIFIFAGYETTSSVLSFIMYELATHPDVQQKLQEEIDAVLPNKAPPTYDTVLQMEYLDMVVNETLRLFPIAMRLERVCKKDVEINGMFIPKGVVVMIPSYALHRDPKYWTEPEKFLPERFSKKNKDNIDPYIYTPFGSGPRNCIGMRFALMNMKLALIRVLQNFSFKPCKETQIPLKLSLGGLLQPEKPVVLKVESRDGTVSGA
compound,measurement,setting,value
CCN(CC)c1nc(Nc2ccc([N+](=O)[O-])cc2)nc(N(CC)CC)n1,EC50,Streptokinase A,> 150 µM (not active)
same,EC50,[1],6.64 µM (active)
same,EC50,Streptococcus,15.7 µM (active)
CC(Oc1cccc(Cl)c1)C(=O)Nc1ccccc1N1CCCC1 (stereo not given),EC50,[2],> 112 µM (not active)
same,EC50,[3],> 112 µM (not active)
C=CCn1cc(/C=C/c2cc[n+](C)cc2)c2ccccc21,EC50,[4],> 60 µM (not active)
same,EC50,[5],0.323 µM (active)
same,AC50,INS1,4.75 µM (active)
O=C(NCCCn1ccnc1)/C(=C\c1ccc(Br)cc1)NC(=O)c1ccccc1,IC50,[6],15.1 µM (active)
Cn1c2ccccc2c(=O)c2c(=O)n(C3CCCCC3)c(-c3cccs3)nc21,EC50,[7],7.92 µM (active)
same,EC50,Streptokinase A,> 150 µM (not active)
same,EC50,[1],10.6 µM (active)
same,EC50,Streptococcus,39.2 µM (active)
same,EC50,[8],8.9 µM (active)
CC(C)N1CCN(Cc2ccc(OC3CCCC3)cc2)CC1CCO (stereo not given),AC50,[9],3.58 µM (active)
Cc1ccc(NC(=O)C(C)Sc2nnc(C)n2C2CC2)cc1S(=O)(=O)N1CCOCC1 (stereo not given),AC50,INS1,> 260 µM (inconclusive)
CC(Oc1ccccc1Cl)C(=O)Nc1ccc(S(=O)(=O)Nc2nccs2)cc1 (stereo not given),IC50,[6],5.01 µM (active)
O=c1c2sc3nc(N4CCOCC4)c4c(c3c2ncn1-c1ccccc1)CCCC4,EC50,[2],> 112 µM (not active)
same,EC50,[3],> 112 µM (not active)
CCOc1ccccc1/C=C/C(=O)NCC(=O)N1CCC(N(C)C2CCCCC2C)CC1 (stereo not given),IC50,[6],14.8 µM (active)
CN(C)C=O.O=C(c1cc(-c2ccccc2Cl)nc2ccccc12)N1CCN(c2ccccn2)CC1,AC50,INS1,3.9 µM (active)
Cc1nnc(SCC(=O)Nc2ccc(Br)cn2)nc1O,EC50,[2],> 112 µM (not active)
same,EC50,[3],> 112 µM (not active)
C[C@@H]1CC[C@H]2C(=O)N3[C@@H](CC[C@@H](C)[C@@H]3c3ccc(Br)cc3)C(=O)N2[C@H]1c1ccc(Br)cc1,AC50,[9],3.04 µM (active)
Cc1noc(C)c1S(=O)(=O)N(CCc1ccccc1)Cc1ccccc1,EC50,Streptokinase A,21.7 µM (active)
same,EC50,[1],68.6 µM (active)
same,EC50,Streptococcus,> 150 µM (not active)
C[N+](C)(C)CC=O [BETAINE ALDEHYDE CHLORIDE],IC50,[6],15.1 µM (active)
CCOC(=O)Nc1ccc(Cc2ccncc2)cc1,AC50,[9],25.3 µM (active)
CCCc1cc2c(-c3ccccc3)cc(=O)oc2cc1OCc1ccc(C(=O)O)o1,EC50,Streptokinase A,13.8 µM (active)
same,EC50,[1],8.37 µM (active)
same,EC50,Streptococcus,> 150 µM (not active)
O=C1/C(=C/c2ccncc2)Oc2cc(OS(=O)(=O)c3ccccc3)ccc21,AC50,[9],3.32 µM (active)
CCCCCCSc1ccc([C@H]2N[C@@](C)(C(=O)OC)[C@H]3C(=O)N(CC)C(=O)[C@@H]23)cc1,AC50,[9],33.7 µM (active)
COC(=O)C1(Cc2ccccc2)C=C2C(=C(C)C(=O)C2C)CN1 (stereo not given),AC50,Cytochrome P450 2D6,15.8 µM (inconclusive)
same,AC50,Cytochrome P450 1A2,10 µM (inconclusive)
same,AC50,Cytochrome P450 3A4,15.8 µM (inconclusive)
same,AC50,Cytochrome P450 2C19,39.8 µM (inconclusive)
Cc1nc2sccn2c(=O)c1S(=O)(=O)NCC(C)c1ccccc1 (stereo not given),EC50,[2],> 112 µM (not active)
same,EC50,[3],> 112 µM (not active)
CCN(CC(=O)NC1CCS(=O)(=O)C1)S(=O)(=O)c1ccccc1 (stereo not given),EC50,[2],> 112 µM (not active)
same,EC50,[3],> 112 µM (not active)
COc1ccc(S(=O)(=O)N/N=C(/C)c2cccc(NC(=O)c3ccccc3Cl)c2)cc1,AC50,Cytochrome P450 2D6,28.2 µM (inconclusive)
same,AC50,Cytochrome P450 1A2,14.1 µM (inconclusive)
same,AC50,Cytochrome P450 2C19,0.398 µM (inconclusive)
O=C(CSc1ccccc1)Nc1nc2ccccc2[nH]1,EC50,[2],> 112 µM (not active)
same,EC50,[3],> 112 µM (not active)
Cc1ccc(C)n1-c1ccc(C(=O)Nc2ccccc2)cc1,AC50,INS1,> 260 µM (inactive)
COc1ccc(NC(=S)N2CCc3ccccc32)cc1OC,EC50,[2],> 112 µM (not active)
same,EC50,[3],> 112 µM (not active)
COc1ccc(NC(=O)c2cccc(OC(F)F)c2)cc1Cl,EC50,[2],17.3 µM (active)
same,EC50,[3],18.2 µM (active)
Cc1cccc(NC(=O)c2[nH]cnc2C(=O)NC2CCN(C(=O)OC(C)(C)C)CC2)c1,AC50,[9],5.39 µM (active)
Nc1c(C(=O)OCc2ccccc2)c2nc3ccccc3nc2n1Cc1cccs1,EC50,Streptokinase A,18.5 µM (active)
same,EC50,[1],10.9 µM (active)
same,EC50,Streptococcus,11.8 µM (active)
CC(C)OCCCN1CN(S(=O)(=O)c2cccs2)c2nc3ccccc3nc21,EC50,[2],> 112 µM (not active)
same,EC50,[3],> 112 µM (not active)
Cc1ccc(Nc2cc(C)nn2-c2nc(C)cc(C)n2)cc1,EC50,Streptokinase A,> 150 µM (not active)
same,EC50,[1],6.89 µM (active)
same,EC50,Streptococcus,18.2 µM (active)
COc1ccc(NC(=O)c2ccc(COc3ccccc3Br)o2)c(OC)c1,AC50,[9],2.2 µM (active)
CC1(C)CC(=O)C2=C(C1)N=C1c3ccccc3C(=O)C1C2c1ccc(Cl)cc1 (stereo not given),EC50,Streptokinase A,14.8 µM (active)
same,EC50,[1],6.07 µM (active)
same,EC50,Streptococcus,> 150 µM (not active)
O=C(NCc1nnc(SCC(=O)N2CCOCC2)o1)c1c(F)cccc1F,EC50,Streptokinase A,> 150 µM (not active)
same,EC50,[1],> 150 µM (not active)
same,EC50,Streptococcus,> 150 µM (not active)
Cc1ccccc1SCC(=O)OCC(=O)N(C)c1c(N)n(Cc2ccccc2)c(=O)[nH]c1=O,EC50,[2],> 112 µM (not active)
same,EC50,[3],> 112 µM (not active)
CN(C)c1nc(OCCNC(=O)Nc2ccc(Cl)cc2)nc(N(C)C)n1,EC50,[2],21.3 µM (active)
same,EC50,[3],> 112 µM (not active)
Cc1ccc(-c2[nH]c3ccccc3c2C(C[N+](=O)[O-])c2ccco2)cc1 (stereo not given),EC50,[2],> 112 µM (not active)
same,EC50,[10],> 260 µM (inactive)
same,EC50,[3],> 112 µM (not active)
